These are literature values, as cited in patent publication US6770262B2, “Nasal administration of agents for the treatment of gastroparesis” (priority 2000, dated 2004).

Like-named read-outs stand apart in the source and are kept apart here.

For the series the following is noted: for onset of action: injection form.

With `CCN(CC)CCNC(=O)c1cc(Cl)c(N)cc1OC` [Metoclopramide], the “time of peak plasma concentrations” value (after a single oral dose) was 1 to 2 h. The onset of action reads like this: (intramuscular administration) 10 to 15 min; (intravenous administration) 1 to 3 min.
